# Experimental data: patent publication US12528814B2, “Bifunctional degraders of interleukin-1 receptor-associated kinases and therapeutic use thereof” (NURIX THERAPEUTICS, INC., priority 2020, dated 2026)
# pIC50: −log10 of the molar value. Like-named read-outs stand apart in the source and are kept apart here.
# Experiments:
# IRAK4 [1] = target: T1, IRAK4 (Homo sapiens (Human), UniProt Q9NWZ3); experiment: IRAK4 Biochemical HTRF Kinase Assay; conditions: read-out: IRAK4 HTRF biochemical: IC50
# Outline: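 HTRF KinEASE STK S1 format measuring IRAK4 phosphorylation of biotinylated peptide; reaction solution of 5 μM STK-S1, 10 mM ATP, 10 mM MgCl2 added (stock, to 10 μl final), 90 min at ambient temperature, detection 60 min. IC50 from sixteen-point duplicate curves by non-linear regression.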
# Target sequence in this assay (Q9NWZ3 whole entry, species assumed): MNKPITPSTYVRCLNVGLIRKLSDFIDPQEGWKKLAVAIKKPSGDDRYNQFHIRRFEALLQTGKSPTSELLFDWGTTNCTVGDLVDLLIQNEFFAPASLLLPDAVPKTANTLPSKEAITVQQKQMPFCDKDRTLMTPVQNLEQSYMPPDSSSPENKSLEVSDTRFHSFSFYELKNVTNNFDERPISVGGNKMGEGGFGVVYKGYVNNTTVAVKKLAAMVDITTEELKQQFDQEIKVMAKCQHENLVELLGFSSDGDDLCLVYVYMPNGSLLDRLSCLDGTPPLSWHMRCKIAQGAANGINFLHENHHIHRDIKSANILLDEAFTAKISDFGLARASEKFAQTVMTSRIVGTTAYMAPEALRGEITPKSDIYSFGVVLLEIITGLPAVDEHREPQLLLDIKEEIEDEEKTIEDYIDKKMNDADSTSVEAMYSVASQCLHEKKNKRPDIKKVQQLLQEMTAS
# IRAK4 [2] = target: T1, IRAK4; experiment: IRAK4 Degradation HiBiT Assay; conditions: HiBiT-tagged Jurkat cells, 4 hrs; for Dmax: Jurkat; for DC50: read-out: Cellular IRAK4 HiBiT: DC50
# Target sequence in this assay (Q9NWZ3 whole entry): as the sequence (Q9NWZ3 whole entry, species assumed) above
# [3] = read-out: Cellular IRAK4 HiBiT: Dmax, Table 5, multiple runs
Structure (SMILES),"pIC50 (IRAK4 [1]; Table 5, multiple runs)",Dmax (IRAK4 [2]; [3]),"DC50 (IRAK4 [2]; Table 5, multiple runs)","Cellular IRAK4 HiBiT: Dmax (IRAK4 [2]; Table 5, multiple runs)",pIC50 (IRAK4 [1]; Table 4),"Dmax (IRAK4 [2]; read-out: Cellular IRAK4 HiBiT: Dmax, Table 4)",DC50 (IRAK4 [2]; Table 4)
"CNc1cc(-c2ccc3cc(C#N)cnn23)ncc1-c1nnc([C@H]2CC[C@H](N(C)C(=O)CCN3CCN(c4ccc5c(c4)C(=O)N(C4CCC(=O)NC4=O)C5=O)CC3)CC2)s1 (stereo partly drawn) [Example 188, N-((1r,4r)-4-(5-(6-(3-cyanopyrrolo[1,2-b]pyridazin-7-yl)-4-(methylamino)pyridin-3-yl)-1,3,4-thiadiazol-2-yl)cyclohexyl)-3-(4-(2-(2,6-dioxopiperidin-3-yl)-1,3-dioxoisoindolin-5-yl)piperazin-1-yl)-N-methylpropanamide]",9.30,108%,16 nM,,,,
"CNc1cc(-c2ccc3cc(C#N)cnn23)ncc1-c1nnc([C@H]2CC[C@@H](NC(=O)CCCCCNc3cccc4c3C(=O)N(C3CCC(=O)NC3=O)C4=O)CC2)s1 (stereo partly drawn) [Example 120, N-((1s,4s)-4-(5-(6-(3-cyanopyrrolo[1,2-b]pyridazin-7-yl)-4-(methylamino)pyridin-3-yl)-1,3,4-thiadiazol-2-yl)cyclohexyl)-6-((2-(2,6-dioxopiperidin-3-yl)-1,3-dioxoisoindolin-4-yl)amino)hexanamide]",8.96,,33.4 nM,32%,,,
"CNc1cc(-c2ccc3cc(C#N)cnn23)ncc1-c1nnc(N2CCC(C3CCN(C(=O)c4ccc5c(c4)C(=O)N(C4CCC(=O)NC4=O)C5=O)CC3)CC2)s1 (stereo not drawn) [Example 184, 7-(5-(5-(1′-(2-(2,6-dioxopiperidin-3-yl)-1,3-dioxoisoindoline-5-carbonyl)-[4,4′-bipiperidin]-1-yl)-1,3,4-thiadiazol-2-yl)-4-(methylamino)pyridin-2-yl)pyrrolo[1,2-b]pyridazine-3-carbonitrile]",9.05,96%,71.4 nM,,,,
"CNc1cc(-c2ccc3cc(C#N)cnn23)ncc1-c1nnc(C23CCC(NC(=O)C4CCN(c5ccc6c(c5)C(=O)N(C5CCC(=O)NC5=O)C6=O)CC4)(CC2)CC3)s1 (stereo not drawn) [Example 134, N-(4-(5-(6-(3-cyanopyrrolo[1,2-b]pyridazin-7-yl)-4-(methylamino)pyridin-3-yl)-1,3,4-thiadiazol-2-yl)bicyclo[2.2.2]octan-1-yl)-1-(2-(2,6-dioxopiperidin-3-yl)-1,3-dioxoisoindolin-5-yl)piperidine-4-carboxamide]",9.05,103%,64.1 nM,,,,
"CNc1cc(-c2ccc3cc(C#N)cnn23)ncc1-c1nnc([C@H]2CC[C@H](NC(=O)CCC(=O)N[C@H](C(=O)N3C[C@H](O)C[C@H]3C(=O)N[C@@H](C)c3ccc(-c4scnc4C)cc3)C(C)(C)C)CC2)s1 [Example 56, N1-((1r,4S)-4-(5-(6-(3-cyanopyrrolo[1,2-b]pyridazin-7-yl)-4-(methylamino)pyridin-3-yl)-1,3,4-thiadiazol-2-yl)cyclohexyl)-N4—((S)-1-((2S,4R)-4-hydroxy-2-(((S)-1-(4-(4-methylthiazol-5-yl)phenyl)ethyl)carbamoyl)pyrrolidin-1-yl)-3,3-dimethyl-1-oxobutan-2-yl)succinamide]",8.82,117%,52.9 nM,,8.55,115%,77.6 nM
"CNc1cc(-c2ccc3cc(C#N)cnn23)ncc1-c1nnc(N2CCC(NC(=O)CN3CCN(c4ccc5c(c4)C(=O)N(C4CCC(=O)NC4=O)C5=O)CC3)CC2)s1 (stereo not drawn) [Example 95, N-(1-(5-(6-(3-cyanopyrrolo[1,2-b]pyridazin-7-yl)-4-(methylamino)pyridin-3-yl)-1,3,4-thiadiazol-2-yl)piperidin-4-yl)-2-(4-(2-(2,6-dioxopiperidin-3-yl)-1,3-dioxoisoindolin-5-yl)piperazin-1-yl)acetamide]",9.10,108%,9.74 nM,,,,
